These are literature values, as cited in US20160052846A1, “METHOD OF DEMULSIFYING AND PURIFYING ORGANIC PRODUCTS FROM AN EMULSION” (CODEXIS, INC., priority 2012, published 2016).

The conditions of this series: for Water sol: in words, no temperature.

Where two headings read alike, the source gives them in different places.

Consider `CCCC(C)O` (centres unmarked) [2-pentanol, pentan-2-ol], for which the “Water sol (g per 100 g)” value (at 20° C.) is 4 at 20 °C g per 100 g.

Turning to `CCCCCO` [Amyl alcohol, pentan-1-ol], for the setting “at 22° C.”, the “Water sol (g per 100 g)” value is 2.7 at 22 °C g per 100 g.

For the compound `CC(C)CO` [Isobutanol, 2-methylpropan-1-ol], the “Water sol (g per 100 g)” value (at 15° C.) is 10 at 15 °C g per 100 g.

As to `CC(C)CCO` [Isopentanol, 3-methylbutan-1-ol], for the setting “at 14° C.”, the “Water sol (g per 100 g)” value was 2 at 14 °C g per 100 g.

For the compound `CC(C)O` [Isopropanol, propan-2-ol], the Water sol entry is on record as “soluble”.

As to `CC(C)(C)CO` [Neopentyl alcohol, 2,2-dimethylpropan-1-ol], the Water sol result is “Slightly soluble”.

Consider `CC(C)C(C)O` (centres unmarked) [Sec iso amyl alcohol, 3-methylbutan-2-ol], for which the Water sol result is “Slightly soluble”.

As to propan-1-ol [Propanol], the Water sol entry is recorded as “soluble”.
